Measured values from patent publication US7507736B2, “Indol-2-yl-piperazin-1-yl-methanone derivatives” (Hoffmann-La Roche Inc., priority 2007, dated 2009).

These compounds were tested against T1, human H3R (Homo sapiens, UniProt Q9Y5N1) (assay: Binding assay with 3H-(R)α-methylhistamine (competition binding, H3R-CHO membranes)). Settings: competition vs 3H(R)α-methylhistamine (1 nM), membranes of the human H3R-CHO cell line; Ki calculated from IC50 by Cheng-Prusoff.
T1 construct: expressed in transfected cells; host or cells: CHO cells
T1 sequence (Q9Y5N1 whole entry): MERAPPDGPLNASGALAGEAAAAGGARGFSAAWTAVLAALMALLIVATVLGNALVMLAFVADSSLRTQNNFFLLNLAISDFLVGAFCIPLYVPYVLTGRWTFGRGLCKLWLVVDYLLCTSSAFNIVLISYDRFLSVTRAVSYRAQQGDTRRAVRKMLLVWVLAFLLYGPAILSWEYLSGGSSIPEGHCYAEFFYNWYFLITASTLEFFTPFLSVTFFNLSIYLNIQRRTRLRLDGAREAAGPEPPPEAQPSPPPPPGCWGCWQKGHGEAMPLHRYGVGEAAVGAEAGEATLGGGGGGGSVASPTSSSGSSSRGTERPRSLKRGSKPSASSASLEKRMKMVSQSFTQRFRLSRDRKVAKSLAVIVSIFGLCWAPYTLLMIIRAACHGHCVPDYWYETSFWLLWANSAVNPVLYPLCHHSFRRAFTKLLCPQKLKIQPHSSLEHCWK
Protocol: Binding Assay with ^3H—(R)α-methylhistamine
Saturation binding experiments were performed using HR3-CHO membranes prepared as described in Takahashi, K, Tokita, S., Kotani, H. (2003) J. Pharmacol. Exp. Therapeutics 307, 213-218.
An appropriate amount of membrane (60 to 80 μg protein/well) was incubated with increasing concentrations of ^3H(R)α-Methylhistamine di-hydrochloride (0.10 to 10 nM). Non specific binding was determined using a 200 fold excess of cold (R)α-Methylhistamine dihydrobromide (500 nM final concentration). The incubation was carried out at room temperature (in deep-well plates shaking for three hours). The final volume in each well was 250 μl. The incubation was followed by rapid filtration on GF/B filters (pre-soaked with 100 μl of 0.5% PEI in Tris 50 mM shaking at 200 rpm for two hours). The filtration was made using a cell-harvester and the filter plates were then washed five times with ice cold washing buffer containing 0.5 M NaCl. After harvesting, the plates were dried at 55° C. for 60 min, then we added scintillation fluid (Microscint 40, 40 microl in each well) and the amount of radioactivity on the filter was determined in Packard top-counter after shaking the plates for two hours at 200 rpm at room temperature. • Binding Buffer: 50 mM Tris-HCl pH 7.4 and 5 mM MgCl2×6H2O pH 7.4. Washing Buffer: 50 mM Tris-HCl pH 7.4 and 5 mM MgCl2×6H2O and 0.5 M NaCl pH 7.4.
Indirect measurement of affinity of H3R inverse agonists: twelve increasing concentrations (ranging from 10 μM to 0.3 nM) of the selected compounds were always tested in competition binding experiments using membrane of the human H3R—CHO cell line. An appropriate amount of protein, e.g. approximately 500 cpm binding of RAMH at Kd, were incubated for 1 hour at room temperature in 250 μl final volume in 96-well plates in presence of ^3H(R)α-methylhistamine (1 nM final concentration=Kd). Non-specific binding was determined using a 200 fold excess of cold (R)α-methylhistamine dihydrobromide.
All compounds were tested at a single concentration in duplicate. […] The concentration at which 50% inhibition of the radioligand ^3H(R)α-methylhistamine is obtained (the IC50) is determined from the linear regression of a plot of the logarithm of the concentration versus percent inhibition measured for the different concentrations. Ki's were calculated from IC50 based on Cheng-Prusoff equation (Cheng, Y. Prusoff, W H (1973) Biochem Pharmacol 22, 3099-3108): Ki=IC50/[1+D/Kd] wherein D is the concentration of the radioligand and Kd is the binding constant for the radioligand binding to the receptor under the conditions used in the competition experiment.
With CC(C)N1CCC(Oc2cc3cc(C(=O)N4CCN(S(=O)(=O)N(C)C)CC4)[nH]c3cc2Br)CC1 [Example 3, 4-[6-Bromo-5-(1-isopropyl-piperidin-4-yloxy)-1H-indole-2-carbonyl]-piperazine-1-sulfonic acid dimethylamide] the Ki was 4.3 nM. Compound CC(C)N1CCC(Oc2cc3cc(C(=O)N4CCN(S(C)(=O)=O)CC4)n(C(C)C)c3cc2Br)CC1 [Example 5, [6-Bromo-1-isopropyl-5-(1-isopropyl-piperidin-4-yloxy)-1H-indol-2-yl]-(4-methanesulfonyl-piperazin-1-yl)-methanone] has a Ki of 3.4 nM. CC(C)N1CCC(Oc2cc3cc(C(=O)N4CCN(C(=O)C5CC5)CC4)[nH]c3cc2Br)CC1 [Example 18, [6-Bromo-5-(1-isopropyl-piperidin-4-yloxy)-1H-indol-2-yl]-(4-cyclopropanecarbonyl-piperazin-1-yl)-methanone] gave a Ki of 2.3 nM. With CC(=O)N1CCN(C(=O)c2cc3cc(OC4CCN(C(C)C)CC4)c(Br)cc3n2-c2ccnc(Cl)c2)CC1 [Example 28, 1-{4-[6-Bromo-1-(2-chloro-pyridin-4-yl)-5-(1-isopropyl-piperidin-4-yloxy)-1H-indole-2-carbonyl]-piperazin-1-yl}-ethanone] the Ki was 1.8 nM. Compound Cc1ccc(S(=O)(=O)N2CCN(C(=O)c3cc4cc(O[C@H]5C[C@H]6CC[C@@H](C5)N6C(C)C)ccc4n3C(C)C)CC2)cc1 [Example 44, [1-Isopropyl-5-((1S,3r,5R)-8-isopropyl-8-aza-bicyclo[3.2.1]oct-3-yloxy)-1H-indol-2-yl]-[4-(toluene-4-sulfonyl)-piperazin-1-yl]-methanone] has a Ki of 2.4 nM. With CC(C)N1CCC(Oc2ccc3c(c2)cc(C(=O)N2CCN(S(C)(=O)=O)CC2)n3CC(F)F)CC1 [Example 55, [1-(2,2-Difluoro-ethyl)-5-(1-isopropyl-piperidin-4-yloxy)-1H-indol-2-yl]-(4-methanesulfonyl-piperazin-1-yl)-methanone] the Ki was 6.7 nM. Work on COC(=O)N1CCN(C(=O)c2cc3cc(OC4CCN(C(C)C)CC4)ccc3n2C(C)C)CC1 [Example 73, 4-[1-Isopropyl-5-(1-isopropyl-piperidin-4-yloxy)-1H-indole-2-carbonyl]-piperazine-1-carboxylic acid methyl ester] yielded a Ki of 10.4 nM.
